Among the data in US20090155376A1, “PROTEIN HYDROLYSATE WITH ANTIDIABETIC EFFECT” (MG PHARMA INC., priority 2004, published 2009) are Fatalities values, retold here.

Where a SMILES comes first, the peptide text is derived from it.

The subject of the data set is male and female ICR mice. The data set is described as follows: Safety test, oral administration to mice. As to conditions: 10 g/kg (maximum allowable dose) or greater. It counts as in vivo. The source says: The peptide having the amino acid sequence Val-Val-Tyr-Pro (SEQ. ID. No. 1) prepared in Example 2 was orally administered to male and female ICR mice in an amount of 10 g/kg (maximum allowable dose) or greater, and there were no fatalities, thereby establishing the safety of the peptide.

`CC(C)[C@H](N)C(=O)N[C@H](C(=O)N[C@@H](Cc1ccc(O)cc1)C(=O)N1CCC[C@H]1C(=O)O)C(C)C` [Peptide (VVYP), Val-Val-Tyr-Pro] (H-VVYP-OH): the Fatalities entry is “no fatalities”.
